Laboratory results: US12527833B2, “Pharmaceutical composition made from hydrophobic phytochemicals dispersed in sesame oil to enhance bioactivity” (ARJUNA NATURAL PVT. LTD., priority 2017, dated 2026)

System: Acute Musculoskeletal Pain
Assay: Randomized active controlled study of BSC-4 in adult patients with acute musculoskeletal pain (NRS, PRS, PPR, MPR, PGIC)
Format: in vivo, human
From the text: A Randomized Active Controlled Study to Assess the Efficacy of Sesame Oil Loaded with Boswellia Extract and Curcuminoid Composition (BSC-4) in Adult Patients with Acute Musculoskeletal Pain. Sample size for the study: 88 Subjects were randomized with 1:1 ratio of male and female in each group. Subject selection—Subjects were selected from the screening site who were ready to give a voluntary informed consent and who meets study inclusion criteria. • 1. Adult patient, Male or female between 18-65 years of age. • 2. A score of 5 or above on the Numerical Rating Scale. • 3. Patients having acute musculoskeletal pain which occurred within 24 hours before presentation e.g. headache musculoskeletal injuries, myalgia, neck pain, limb pain, low back pain, joint pain, widespread musculoskeletal pain, painful uncomplicated acute soft tissue injury of the upper or lower extremity, including acute injuries of ligaments, tendons, or muscles (including Grade 1), not requiring admittance to hospital. • 4. Willing to give voluntary informed consent. Visit 1, randomization; subject were provided BSC-4 or Paracetamol as per the pre-documented randomization list accessed only by pharmacist. Patients were entering the NRS, PRS, and PGIC in the diary before and after 2 hour of taking the dose. Follow up calls were made over phone for patents compliance to treatment, diary completion. The follow up on day 3 the patient were reminded to bring the diary for review and bottle for IP accountability at the next visit. Visit 2, Physical examination, vitals, and patient diary were checked. Post dose (2 hours) pain intensity using NRS, pain relief using categorical PRS, and patient's global impression of change (PGIC) were recoded. Visit 3, next visit on 6th day from the visit 1, Patients entered the NRS, PRS, and PGIC in the diary before and after 2 hrs of taking the dose. Follow up calls were made over phone for their compliance to treatment, diary completion. The follow up on day 6 the patient were reminded to bring the diary for review and bottle for IP accountability at the next visit. Physical examination, vitals, and patient diary were checked. Post dose (2 hours) pain intensity using NRS, pain relief using categorical PRS, and patient's global impression of change (PGIC) were recorded. The NRS is an 11-point scales in which 0 represents ‘no pain’ and 10 represents the worst pain possible. The patient were asked to rate their pain intensity as a number from 0 to 10. Alternatively, for better conception it may be explained as below. The NRS were recorded on screening and those patients who have 5 or above score only were enrolled into the study. After the first dose the patient were give the pain intensity rating every 30 minutes up to 6 hours post dose for calculating SPID 6 hrs. The NRS was included in the diary and the patient was required to give the pain intensity every morning before taking the dose and 2 hrs after dose until the end of the study. The average of the recorded data is provided in a graphical form in FIG. 7 (b). The average percentage change of patents when they visited the centre on day 3 and day 7 is provided below. The pain relief scale is a categorical scale having a positive progression from ‘No relief’ to ‘complete relief’. After the first dose the patient rated the pain relief every 30 minutes up to 6 hours for the assessment of Total pain relief 6 hours. The average pain relief score for the 6 hours test was recorded and represented in graphical form in FIG. 8 (a). The pain relief scale was included in the diary and the patient was required to give the pain relief every morning before taking the dose and 2 hours after dose until the end of the study. The average pain relief score for the seven days test was recorded in diary and represented in graphical form in FIG. 8 (b). After dosing the two stop watches were given to the patient. The patient had to stop one of the watches when they felt relief from pain. […]

For `CC(=O)Nc1ccc(O)cc1` [Paracetamol], the “NRS score in six hours” value (FIG. 7(a), 0-10 scale, baseline around 6) was 2, the “NRS score by the end of 7th day” value (FIG. 7(b), 0-10 scale, baseline close to 6) was roughly 1 and the “PRS score in six hours” value (FIG. 8(a), scale 1 No Relief to 5 Complete Relief, baseline around 1) was 3. The “PRS score by the end of 7th day” value (FIG. 8(b), scale 1-5, baseline close to 1) was roughly 3, the “Percentage change in pain intensity at 6 hours” value (NRS, 6 hours after first dose) was 72.1% and the “Percentage change in pain intensity in 7 days, day 3” value (NRS, day 3) was 24.8%. For the same molecule, the “Percentage change in pain intensity in 7 days, day 7” value (NRS, day 7) was 83.62%, the “Percentage change in pain relief at 6 hours” value (PRS, 6 hours after first dose, threshold reached by the n patients in the same cell) was greater than 75% and the “Number of patients (n) with the stated percentage change in pain relief at 6 hours” value (PRS, 6 hours, of n = 44 per group, >75% change) was 30. The “Number of patients (n) with the stated percentage change in pain relief, Day 3” value (PRS, Day 3, of n = 44 per group, >50% change) was 20, the “Percentage change in pain relief, Day 3” value (PRS, Day 3, threshold reached by the n patients in the same cell) was greater than 50% and the “Number of patients (n) with the stated percentage change in pain relief, Day 7” value (PRS, Day 7, of n = 44 per group, >75% change) was 37. The “Percentage change in pain relief, Day 7” value (PRS, Day 7, threshold reached by the n patients in the same cell) was greater than 75%, the “Meaningful pain relief” value (average time to meaningful pain relief (MPR), censored at 6 hours) was 4.51 h and the “Perceptible pain relief” value (average time to perceptible pain relief (PPR), stop watch) was 2.62 h. The “PGIC score, Day 2” value (scale 1 Very Much Improved to 7 Very Much Worse, Day 2) was 3, the “PGIC score, Day 3” value (scale 1 Very Much Improved to 7 Very Much Worse, Day 3) was 3 and the “PGIC score, Day 4” value (scale 1 Very Much Improved to 7 Very Much Worse, Day 4) was 3. The “PGIC score, Day 5” value (scale 1 Very Much Improved to 7 Very Much Worse, Day 5) was 3, the “PGIC score, Day 6” value (scale 1 Very Much Improved to 7 Very Much Worse, Day 6) was 3 and the “PGIC score, Day 7” value (scale 1 Very Much Improved to 7 Very Much Worse, Day 7) was 2.
